Where “and” joins values, the source holds several entries; their conditions need not be identical. Equal entries are not always repeated.
Biological target: KCNQ1 (Homo sapiens, UniProt P51787)
Experiment: Two-electrode voltage clamp of WT KCNQ1 expressed in Xenopus oocytes
Assay type: cell-based
Details: for Current: Fig. 3b; for G/Gmax Mean: Fig. 3c; for ΔV1/2 of activation induced by CP1: Fig. 3e dose response; for Time constants of deactivation: Fig. 3d, individual values
Description: Complementary DNA (cDNA) encoding human KCNQ1 (UniProtKB/Swiss-Prot under accession no. P51787), KCNQ2 (O43526), KCNQ3 (O43525), KCNE1 (P15382), Kir1.1 (P48048), hERG (Q12809), KV4.2 (Q63881), NaV1.5 (Q14524), NaV β1 (Q07699), CaV1.2 (Q13936), CaV β1a (Q02641), CaV α2/δ1 (P54289), and HCN4 (Q9Y3Q4) were subcloned into oocyte expression vectors, respectively. Site-directed mutations of the KCNQ1 channel were all produced by overlap extension polymerase chain reaction (PCR) with high-fidelity Pfu polymerase (Stratagene, CA). The presence of the desired mutation was verified by sequencing the PCR-amplified regions. All the primer sequences used in this study are available in Supplementary Table 1. The complementary RNA (cRNA) of all these channels and mutations was transcribed in vitro with the T3, T7, or SP6 polymerase mMessage mMachine kit (Invitrogen, Thermo Fisher Scientific, MO). The use of Xenopus laevis to obtain oocytes was approved by the Washington University Animal Studies Committee (protocol #20190030). Oocytes were manually dispersed and digested with collagenase (0.5 mg/ml, Sigma-Aldrich, Saint Louis, MO) to remove the follicle cell layer. Stage V or VI oocytes were selected and injected with cRNAs (9.2 ng) of channel or mutations. Especially, to characterize IKs, a mix of cRNAs at a molar ratio 4:1 (KCNQ1:KCNE1) was injected. For KCNQ2/KCNQ3, the molar ratio was 1:1 (KCNQ2:KCNQ3). For sodium channels, a 3:1 molar ratio (β1:NaV1.5) and for calcium channels a weight ratio 1:1:1 (β1:α2/δ1:CaV1.2) was injected, respectively. Injected oocytes were incubated in ND96 solution containing (in mM) 96 NaCl, 2 KCl, 1.8 CaCl2, 1 MgCl2, and 5 HEPES, pH 7.6, supplemented with 2.5 mM Na pyruvate and 1% penicillin-streptomycin, at 18 °C for 3-7 days before recording. All electrophysiological recordings on oocytes and isolated ventricular cells were performed at room temperature (20-23 °C). The whole-oocyte ionic currents were recorded with a GeneClamp 500B amplifier (Axon Instruments, CA) or iTEV90 amplifier (HEKA, Germany) and then sampled at 1 kHz and low-pass-filtered at 2 kHz. The Patchmaster software (HEKA, Germany) was used to acquire data. The Kir1.1 current was recorded with a high K^+ bath solution containing (in mM) 96 KCl, 4 NaCl, 1 CaCl2, 2 MgCl2, and 10 HEPES, pH 7.3-7.4. The HCN4 current was recorded in ND66 solution containing (in mM) 66 NaCl, 32 KCl, 1.8 CaCl2, 1 MgCl2, and 5 HEPES, pH 7.6. All the other potassium channels were recorded in ND96 solution. The currents of CaV1.2 channel were recorded in 40 mM Ba^2+ bath solution containing (in mM) 40 Ba(OH)2, 50 TEA-OH, 2 KOH, and 5 HEPES, adjusted to pH 7.4 with methanesulfonic acid. […] All the chemicals were purchased from Sigma-Aldrich. To measure the I-V relations of the Kir1.1 channel, the test voltage was set from -100 to +60 mV for 1 s with 20-mV increments. […] The HCN4 currents were recorded by a test pulse between -30 and -140 mV in 10-mV step from a holding potential of -30 mV. For all the other potassium channels and CaV1.2 channel, the holding potential was -80 or -100 mV, and the test pulse was applied with 10-mV increment, which was followed with a repolarization pulse at -40 mV before returning to the holding potential. The durations of test and the repolarization pulse vary for different channels to allow the activation and deactivation of the channel to reach their steady states. Electrophysiology data were processed with IGOR (Wavemetrics, Lake Oswego, OR), Clampfit (Molecular Devices, Sunnyvale, CA), and SigmaPlot (SPSS, Inc., San Jose, CA). Normalized tail currents were plotted versus prepulse voltage and fitted with the Boltzmann function G = G0 + 1/(1 + exp(V - V1/2)/S), where G0 is the minimum conductance, V1/2 is the half-maximal voltage of activation, and S is the slope factor. […]

O=S(=O)([O-])Oc1c(-c2sc3c(ccc4cccc(Cl)c43)c2OS(=O)(=O)[O-])[nH]c2ccc(Br)cc12.[Na+].[Na+] [CP1, DISODIUM 5-BROMO-2-[9-CHLORO-3-(SULFONATOOXY) NAPHTHO [1,2-B] THIEN-2-YL]-1H-INDOL-3-YL SULFATE]
outward current (Icp1/Ictrl) (10 µM CP1, Q1, at −10 mV, individual oocytes): 0.8052 and 0.8187 and 0.929 and 0.8224 and 0.7283
∆V1/2 (10 µM CP1, Q1, individual oocytes (Fig. 5c)): 44.3815 mV and 57.8695 mV and 53.8703 mV and 54.2596 mV and 54.8585 mV
∆V1/2 (10 µM CP1, WT, individual oocytes): 47.2416 mV and 59.5412 mV and 44.3815 mV and 57.8695 mV and 53.8703 mV and 54.2596 mV and 54.8585 mV and 51.8892 mV and 58.8475 mV and 52.7212 mV and 56.3253 mV
τ deact at -120 mV (10 µM CP1 treated, Q1, individual oocytes): 1.3301 s and 1.9909 s and 0.8395 s and 0.9034 s and 1.9351 s and 1.4782 s and 1.0081 s
Current (10 µM CP1, 0 mV): 3.7050 µA
Current (10 µM CP1, 10 mV): 4.0550 µA
Current (10 µM CP1, 20 mV): 4.3975 µA
Current (10 µM CP1, 30 mV): 4.6856 µA
Current (10 µM CP1, 40 mV): 4.8369 µA
Current (10 µM CP1, -10 mV): 3.2725 µA
Current (10 µM CP1, -20 mV): 2.9419 µA
Current (10 µM CP1, -30 mV): 2.4731 µA
Current (10 µM CP1, -40 mV): 1.9956 µA
Current (10 µM CP1, -50 mV): 1.5250 µA
Current (10 µM CP1, -60 mV): 1.0387 µA
Current (10 µM CP1, -70 mV): 0.5337 µA
Current (10 µM CP1, -80 mV): 0.1319 µA
Current (10 µM CP1, -90 mV): -0.1563 µA
Current (10 µM CP1, -100 mV): -0.3112 µA
Current (10 µM CP1, -110 mV): -0.3831 µA
Current (10 µM CP1, -120 mV): -0.4494 µA
G/Gmax Mean (10 µM CP1, 0 mV): 0.9915
G/Gmax Mean (10 µM CP1, 10 mV): 0.9924
G/Gmax Mean (10 µM CP1, -10 mV): 1.0000
G/Gmax Mean (10 µM CP1, -20 mV): 0.9950
G/Gmax Mean (10 µM CP1, -30 mV): 0.9789
G/Gmax Mean (10 µM CP1, -40 mV): 0.9526
G/Gmax Mean (10 µM CP1, -50 mV): 0.9082
G/Gmax Mean (10 µM CP1, -60 mV): 0.8392
G/Gmax Mean (10 µM CP1, -70 mV): 0.7434
G/Gmax Mean (10 µM CP1, -80 mV): 0.6159
G/Gmax Mean (10 µM CP1, -90 mV): 0.4868
G/Gmax Mean (10 µM CP1, -100 mV): 0.3712
G/Gmax Mean (10 µM CP1, -110 mV): 0.2836
G/Gmax Mean (10 µM CP1, -120 mV): 0.2306
ΔV1/2 of activation induced by CP1 (1 µM CP1, individual values): 10.5419 and 2.1756 and 5.0919
ΔV1/2 of activation induced by CP1 (2 µM CP1, individual values): 12.1917 and 9.8070 and 18.4095 and 22.1605 and 21.9879 and 9.1767 and 12.7137
ΔV1/2 of activation induced by CP1 (5 µM CP1, individual values): 24.5897 and 25.8044 and 18.4530 and 34.4519 and 16.0115 and 11.0322
ΔV1/2 of activation induced by CP1 (10 µM CP1, individual values): 47.2416 and 73.6056 and 59.5412 and 44.3815 and 57.8695 and 53.8703 and 54.2596 and 54.8585 and 51.8892 and 58.8475 and 52.7212 and 56.3253
ΔV1/2 of activation induced by CP1 (25 µM CP1, individual values): 80.4973 and 70.5486 and 58.5444
ΔV1/2 of activation induced by CP1 (50 µM CP1, individual values): 90.4999 and 79.3797 and 90.4855
Time constants of deactivation (10 µM CP1, -90 mV): 3656.5 ms and 3430.6 ms and 3945.9 ms and 3244.2 ms
Time constants of deactivation (10 µM CP1, -100 mV): 3169.0 ms and 2901.8 ms and 2335.0 ms and 2809.3 ms and 2214.2 ms
Time constants of deactivation (10 µM CP1, -110 mV): 1447.9 ms and 2103.3 ms and 1665.7 ms and 1887.0 ms and 1619.5 ms
Time constants of deactivation (10 µM CP1, -120 mV): 823.6 ms and 1460.2 ms and 1255.8 ms and 1290.8 ms and 1343.2 ms
EC50 (KCNQ1 expressed alone in oocytes, Hill fit, read-out: EC50 of G–V shift (ΔV1/2 of activation) versus CP1 concentration): 8.73 ± 0.68 µM
ion selectivity of KCNQ1 channels (Supplementary Fig. 2): does not alter the ion selectivity
G/Gmax (WT, 10 µM CP1, -20 mV): 1.0000
G/Gmax (WT, 10 µM CP1, -30 mV): 0.9911
G/Gmax (WT, 10 µM CP1, -40 mV): 0.9627
G/Gmax (WT, 10 µM CP1, -50 mV): 0.9093
G/Gmax (WT, 10 µM CP1, -60 mV): 0.8189
G/Gmax (WT, 10 µM CP1, -70 mV): 0.6709
G/Gmax (WT, 10 µM CP1, -80 mV): 0.4831
G/Gmax (WT, 10 µM CP1, -90 mV): 0.2996
G/Gmax (WT, 10 µM CP1, -100 mV): 0.1522
G/Gmax (WT, 10 µM CP1, -110 mV): 0.0549
G/Gmax (WT, 10 µM CP1, -120 mV): 0.0000

Source: article PMC7367283, “A PIP2 substitute mediates voltage sensor-pore coupling in KCNQ activation” (Communications Biology, 2020)
